Test results published in patent US20160047748A1, “FLUORESCENT PROBE” (THE UNIVERSITY OF TOKYO, priority 2013, published 2016).

What was measured:
physchem = type: physicochemical
Description: (§1) The optical characteristics, absorbance spectra, and fluorescence spectra of the resulting ZnTM-1 depending on pHs are shown in FIG. 1. The pH-induced changes were measured using ZnTM-1 (1 μM) in a buffer of 0.1M sodium phosphate containing 15% DMSO. pKa was determined by biphasic fitting using the absorbance at the absorbance maximum wavelength. EDTA (100 μM) was added in order to eliminate the effect of trace metal ions during the measurement of quantum yield when Zn^2+ had not been added, and then measurement was carried out.

[1] = Optical characteristics, Zn^2+ addition experiment; type: physicochemical; details: for Φf1: fluorescence quantum yield
Description: as §1, with “Zn^2+ addition experiment was carried out by adding ZnSO4 to a solution obtained by adding” for “pH-induced changes were measured using”, “HEPES (pH 7.4)” for “sodium phosphate”

HeLa cells [2] = test: Cell imaging using ZnTM-1; type: cell-based; details: 10 μM, 30 min at 37° C., HBSS 1% DMSO, ZnSO4 (50 μM)/pyrithione (5 μM), then TPEN (100 μM)
Description: Cell imaging was carried out using ZnTM-1. HeLa cells were incubated for 30 minutes at 37° C. together with 10 μM of ZnTM-1 in a Hank's balanced salt solution (HBSS) containing 1% DMSO. The mixture was washed once using HBSS, then HBSS was added and the cells were observed using an epifluorescence microscope IX-71 (Olympus) with an excitation wavelength of 565 to 585 nm and a fluorescence wavelength of 600 to 690 nm. The observation was carried out in every 30 seconds, ZnSO4 (50 μM) and pyrithione (5 μM), which is an ionophore, were added after 2 minutes and 30 seconds from the beginning of observation, and TPEN (100 μM), which is a cell-membrane-permeating zinc chelator, was added after 6 minutes from the beginning of observation.

HeLa cells [3] = test: Ca^2+-imaging of living cells; type: cell-based
Description: Ca^2+-imaging of living cells was carried out using CaTM-3-AM. In order to study the utility thereof, a comparison was made with CaTM-2-AM(N-[2-[(acetyloxy)]-2-oxoethyl]amino]-N-[2-[2-[2-[bis[2-[(acetyloxy)methoxy]-2-oxoethyl]amino]-5-[[4-(1,8-dichloro-2,9-dihydro-7-hydroxy-9,9-dimethyl-2-oxo-9-silaanthracen-10-yl)-3-methylbenzoyl]amino]phenoxy]ethoxy]phenyl]-glycine(acetyloxy)methyl ester), which has a methyl group at position 2 of the benzene ring instead of a carboxy group. HeLa cells were incubated for 30 minutes at 37° C. together with 3 μM of CaTM-2-AM or CaTM-3-AM in a Hank's balanced salt solution (HBSS) containing 0.03% DMSO. The cells were washed three times using HBSS, then HBSS was added and the cells were observed using a confocal microscope SP5 (Leica) with an excitation wavelength of 590 nm and a fluorescence wavelength of 610 to 680 nm.
Ca^2+ imaging was carried out during stimulation by histamine and ionomycin using cells to which CaTM-3-AM had been added. Histamine hydrochloride (1 μM) was added after 1 minute from the beginning of observation, and ionomycin (5 μM) was added after 4 minutes from the beginning of observation.

[4] = ZnTM-1 1 μM, 0.1M HEPES (pH 7.4) containing 15% DMSO, Zn^2+ not added

## C[Si]1(C)C2=C(F)C(=O)C=CC2=C(c2ccc(C(=O)Nc3ccc(NCCN(Cc4ccccn4)Cc4ccccn4)cc3)cc2C(=O)O)c2ccc(O)c(F)c21 [ZnTM-1, 5-[[[4-[[2-[bis(2-pyridinylmethyl)amino]ethyl]amino]phenyl]amino]carbonyl]-2-(1,8-difluoro-2,9-dihydro-7-hydroxy-9,9-dimethyl-2-oxo-9-silaanthracen-10-yl)benzoic acid]
physchem
  pKa: 7.2
[1]; [4]
  λabs (nm): 589 nm
  λf1 (nm): 601 nm
[1]; + 10 eq Zn^2+ (ZnSO4), 0.1M HEPES (pH 7.4) containing 15% DMSO
  Φf1: 0.281
[1]; Zn^2+ not added, EDTA (100 μM) added
  Φf1: 0.062
HeLa cells [2]
  Cell uptake and function as Zn^2+-detecting fluorescent probe: is taken into the cell and functions effectively as a Zn^2+-detecting fluorescent probe

## CC(=O)OCOC(=O)CN(CC(=O)OCOC(C)=O)c1ccccc1OCCOc1cc(NC(=O)c2ccc(C3=C4C=CC(=O)C(Cl)=C4[Si](C)(C)c4c3ccc(O)c4Cl)c(C(=O)O)c2)ccc1N(CC(=O)OCOC(C)=O)CC(=O)OCOC(C)=O [CaTM-3-AM, 5-[[[4-[bis[2-[(acetyloxy)methoxy]-2-oxoethyl]amino]-5-[2-[2-[bis[2-[(acetyloxy)methoxy]-2-oxoethyl]amino]phenoxy]ethoxy]-phenyl]amino]carbonyl]-2-(1,8-dichloro-2,9-dihydro-7-hydroxy-9,9-dimethyl-2-oxo-9-silaanthracen-10-yl)-benzoic acid]
HeLa cells [3]; HeLa cells, 3 μM, 30 min at 37° C., HBSS 0.03% DMSO, excitation 590 nm, fluorescence 610 to 680 nm
  Brightness of fluorescence image: brighter fluorescence image than does CaTM-2-AM
HeLa cells [3]; HeLa cells, 3 μM, 30 min at 37° C., compared with CaTM-2-AM
  Quantity of fluorescent probe taken into cells: a larger quantity of fluorescent probes is taken into cells
HeLa cells [3]; histamine hydrochloride (1 μM) after 1 minute, ionomycin (5 μM) after 4 minutes
  Detection of variation in intracellular Ca^2+ during stimulation: can be accurately ascertained
